This note sets out measurements from patent publication US20090137572A1, “2-substituted-4-heteroaryl-pyrimidines useful for the treatment of proliferative disorders” (priority 2004, published 2009).

Holding throughout (type): biochemical
One test has as its target T1, Aurora A kinase (Homo sapiens, UniProt O14965).
T1 construct: purchased
T1 sequence (O14965 1-403): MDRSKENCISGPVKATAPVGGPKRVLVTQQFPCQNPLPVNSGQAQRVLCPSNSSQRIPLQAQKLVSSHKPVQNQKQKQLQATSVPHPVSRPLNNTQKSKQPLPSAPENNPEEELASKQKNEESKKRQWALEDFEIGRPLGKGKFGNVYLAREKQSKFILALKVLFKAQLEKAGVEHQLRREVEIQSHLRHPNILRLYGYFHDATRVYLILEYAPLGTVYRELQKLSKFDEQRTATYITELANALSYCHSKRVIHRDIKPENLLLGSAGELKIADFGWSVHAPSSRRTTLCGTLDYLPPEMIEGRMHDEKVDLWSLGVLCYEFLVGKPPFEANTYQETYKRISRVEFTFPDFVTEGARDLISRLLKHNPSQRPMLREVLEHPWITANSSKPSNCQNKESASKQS
Briefly: Aurora-A (human) kinase assay (Kemptide substrate). To be noted: pIC50 is -log(IC50, M); 15 μM ATP; read-out: Kinase Inhibition pIC50 Aurora A kinase (converted). Summed up:
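Radiometric filter-binding assay: commercial aurora-A kinase (5-10 ng) with 200 μM Kemptide in MOPS/EDTA pH 7.0, started with 10 mM Mg acetate and 15 μM ATP plus [γ-33P]-ATP. Incubated 40 min at room temperature, stopped with phosphoric acid, incorporated 33P counted by scintillation.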

The target in test [1] is T2, protein kinases (panel of Table 4) (Homo sapiens, UniProt P06493).
T2 construct: other: kinase CDK1B; ATP 100 μM
T2 sequence (P06493 whole entry): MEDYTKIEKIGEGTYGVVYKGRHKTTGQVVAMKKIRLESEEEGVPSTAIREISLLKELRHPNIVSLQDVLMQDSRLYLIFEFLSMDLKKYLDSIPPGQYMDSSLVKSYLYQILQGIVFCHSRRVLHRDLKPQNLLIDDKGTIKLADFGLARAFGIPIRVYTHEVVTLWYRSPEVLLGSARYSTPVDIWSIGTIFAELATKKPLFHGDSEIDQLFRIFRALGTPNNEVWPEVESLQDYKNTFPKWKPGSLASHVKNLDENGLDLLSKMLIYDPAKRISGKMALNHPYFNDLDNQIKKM
The test is described as follows: Kinase selectivity profile, kinase inhibition IC50 (Table 4), ATP 100 μM. To be noted: kinase CDK1B. Here is the method: (§1) For the assays shown in Table 3, the kinases were assayed at the following ATP concentrations: SAPK4, PKBΔph, GSK3b, SAPK3, CK2, MKK1, PIM2, IKKB, ERK8, and PRK2 at 5 μM; JNK, PRAK, ROCK-II, SAPK2b, CDK2, CHK1, MSK1, CSK, P70S6K, PKA, CK1, MAPKAP-K2, SGK, PKCa, PDK1, NEK 7, and MAPKAP-K3 at 20 μM; SAPK2a, LCK, AMPK, MAPK2, DYRK1a, MAPKAP-K1a, NEK-6, NEK2a, PBK, CAMK-1, SRPK-1, JNK3, MNK2, RSK2, MNK1, PKBB, and SmMLCK at 50 μM. For the assays in Table 4 the ATP concentration was 100 μM throughout.

In test [2] the target is T3, protein kinases (panel of Table 4) (Homo sapiens, UniProt P09619).
T3 construct: other: kinase PDGFb; ATP 100 μM
T3 sequence (P09619 whole entry): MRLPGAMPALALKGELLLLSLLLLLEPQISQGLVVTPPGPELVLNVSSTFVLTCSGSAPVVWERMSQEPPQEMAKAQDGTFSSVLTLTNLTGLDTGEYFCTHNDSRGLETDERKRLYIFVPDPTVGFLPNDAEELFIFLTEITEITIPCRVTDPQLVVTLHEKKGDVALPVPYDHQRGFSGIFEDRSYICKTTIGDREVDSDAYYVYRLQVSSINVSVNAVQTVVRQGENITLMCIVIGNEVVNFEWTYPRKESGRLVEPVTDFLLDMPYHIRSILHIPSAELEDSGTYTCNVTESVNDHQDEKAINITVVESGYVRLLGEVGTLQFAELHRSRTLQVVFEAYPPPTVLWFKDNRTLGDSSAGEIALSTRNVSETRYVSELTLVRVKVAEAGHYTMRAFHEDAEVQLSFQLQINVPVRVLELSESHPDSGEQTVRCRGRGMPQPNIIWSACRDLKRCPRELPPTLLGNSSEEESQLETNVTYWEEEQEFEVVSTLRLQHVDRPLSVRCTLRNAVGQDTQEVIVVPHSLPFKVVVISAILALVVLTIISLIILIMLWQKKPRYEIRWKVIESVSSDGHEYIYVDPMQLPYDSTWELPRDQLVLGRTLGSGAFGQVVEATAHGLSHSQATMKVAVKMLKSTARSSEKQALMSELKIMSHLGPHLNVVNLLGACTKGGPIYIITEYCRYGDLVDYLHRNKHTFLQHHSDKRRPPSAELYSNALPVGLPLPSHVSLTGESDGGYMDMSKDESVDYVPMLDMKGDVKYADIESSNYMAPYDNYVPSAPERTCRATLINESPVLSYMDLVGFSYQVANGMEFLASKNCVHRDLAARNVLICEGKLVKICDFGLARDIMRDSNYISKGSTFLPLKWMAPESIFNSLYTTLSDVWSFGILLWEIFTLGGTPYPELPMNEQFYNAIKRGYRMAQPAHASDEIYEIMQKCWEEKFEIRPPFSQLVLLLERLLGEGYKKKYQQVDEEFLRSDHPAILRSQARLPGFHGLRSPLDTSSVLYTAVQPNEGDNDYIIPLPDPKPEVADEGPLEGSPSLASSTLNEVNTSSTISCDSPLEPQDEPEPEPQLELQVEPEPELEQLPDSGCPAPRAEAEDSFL
Described as above. To be noted: kinase PDGFb. The protocol: as §1

Test [3] has as its target T4, protein kinases (panel of Table 4).
T4 construct: other: kinase PKC; ATP 100 μM
Described as above. To be noted: kinase PKC. Here is the method: as §1

Test [4] concerns the target T5, protein kinases (panel of Table 4) (Homo sapiens, UniProt Q00534).
T5 construct: other: kinase CDK6D3; ATP 100 μM
The test is described as above. To be noted: kinase CDK6D3. Here is the method:
as §1

Test [5] addresses T6, protein kinases (panel of Table 4) (Homo sapiens, UniProt P36888).
T6 construct: other: kinase Flt3; ATP 100 μM
T6 sequence (P36888 1-993): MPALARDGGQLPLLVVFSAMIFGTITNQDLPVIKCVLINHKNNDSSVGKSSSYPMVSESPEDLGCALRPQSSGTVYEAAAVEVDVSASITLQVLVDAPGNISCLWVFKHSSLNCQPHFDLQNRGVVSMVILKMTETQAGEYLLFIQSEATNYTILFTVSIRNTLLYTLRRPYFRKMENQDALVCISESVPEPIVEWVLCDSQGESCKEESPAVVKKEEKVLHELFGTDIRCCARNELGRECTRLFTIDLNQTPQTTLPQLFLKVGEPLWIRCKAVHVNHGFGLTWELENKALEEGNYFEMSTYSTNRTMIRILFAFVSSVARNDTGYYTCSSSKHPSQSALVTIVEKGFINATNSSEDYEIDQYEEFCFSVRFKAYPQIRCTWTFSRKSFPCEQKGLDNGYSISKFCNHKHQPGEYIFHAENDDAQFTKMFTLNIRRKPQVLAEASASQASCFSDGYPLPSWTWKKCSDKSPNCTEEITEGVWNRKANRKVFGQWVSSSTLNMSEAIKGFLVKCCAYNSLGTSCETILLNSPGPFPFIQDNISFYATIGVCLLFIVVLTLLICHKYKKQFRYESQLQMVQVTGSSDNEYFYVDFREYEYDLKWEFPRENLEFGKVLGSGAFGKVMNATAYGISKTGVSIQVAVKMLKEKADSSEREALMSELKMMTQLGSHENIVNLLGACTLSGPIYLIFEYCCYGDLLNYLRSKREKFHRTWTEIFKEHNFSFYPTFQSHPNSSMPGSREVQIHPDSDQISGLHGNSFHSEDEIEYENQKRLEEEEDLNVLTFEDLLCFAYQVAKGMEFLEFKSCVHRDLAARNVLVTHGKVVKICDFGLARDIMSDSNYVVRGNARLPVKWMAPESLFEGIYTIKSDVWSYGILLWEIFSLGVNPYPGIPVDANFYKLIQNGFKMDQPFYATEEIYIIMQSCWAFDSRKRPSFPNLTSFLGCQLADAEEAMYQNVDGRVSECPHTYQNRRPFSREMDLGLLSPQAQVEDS
The description is as above. To be noted: kinase Flt3. Here is the method: as §1

The target in test [6] is T7, protein kinases (panel of Table 4) (Homo sapiens, UniProt P53350).
T7 construct: other: kinase Plk1; ATP 100 μM
T7 sequence (P53350 whole entry): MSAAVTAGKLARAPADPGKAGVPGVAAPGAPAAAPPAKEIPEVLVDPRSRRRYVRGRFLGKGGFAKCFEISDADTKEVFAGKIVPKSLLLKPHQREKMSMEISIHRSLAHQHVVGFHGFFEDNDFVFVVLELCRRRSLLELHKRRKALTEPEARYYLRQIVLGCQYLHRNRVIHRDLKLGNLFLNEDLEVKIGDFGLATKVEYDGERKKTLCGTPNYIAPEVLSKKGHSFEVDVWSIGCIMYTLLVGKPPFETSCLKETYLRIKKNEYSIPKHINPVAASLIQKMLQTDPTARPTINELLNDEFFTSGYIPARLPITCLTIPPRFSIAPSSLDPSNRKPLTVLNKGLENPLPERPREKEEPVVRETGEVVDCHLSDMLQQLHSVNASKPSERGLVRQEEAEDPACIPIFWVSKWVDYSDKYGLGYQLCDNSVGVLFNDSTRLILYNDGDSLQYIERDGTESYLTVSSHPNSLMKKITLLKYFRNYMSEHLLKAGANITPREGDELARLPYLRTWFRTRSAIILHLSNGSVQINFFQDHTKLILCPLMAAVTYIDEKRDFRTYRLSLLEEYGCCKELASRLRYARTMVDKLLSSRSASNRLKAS
The description is as above. To be noted: kinase Plk1. The protocol:
as §1

Test [7] concerns the target T8, protein kinases (panel of Table 4) (Homo sapiens, UniProt P00519).
T8 construct: other: kinase Ab1; ATP 100 μM
The test is described as above. To be noted: kinase Ab1. The protocol:
as §1

T5 sequence (Q00534 whole entry): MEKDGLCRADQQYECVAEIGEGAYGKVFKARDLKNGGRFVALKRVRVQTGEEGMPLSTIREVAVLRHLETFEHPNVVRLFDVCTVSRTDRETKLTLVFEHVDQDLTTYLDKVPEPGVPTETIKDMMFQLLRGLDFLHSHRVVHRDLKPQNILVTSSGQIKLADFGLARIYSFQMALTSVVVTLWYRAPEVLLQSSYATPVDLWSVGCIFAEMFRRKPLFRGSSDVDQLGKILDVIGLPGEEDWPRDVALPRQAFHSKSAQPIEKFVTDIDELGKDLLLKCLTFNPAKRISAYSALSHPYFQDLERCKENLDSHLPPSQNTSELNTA
T8 sequence (P00519 whole entry): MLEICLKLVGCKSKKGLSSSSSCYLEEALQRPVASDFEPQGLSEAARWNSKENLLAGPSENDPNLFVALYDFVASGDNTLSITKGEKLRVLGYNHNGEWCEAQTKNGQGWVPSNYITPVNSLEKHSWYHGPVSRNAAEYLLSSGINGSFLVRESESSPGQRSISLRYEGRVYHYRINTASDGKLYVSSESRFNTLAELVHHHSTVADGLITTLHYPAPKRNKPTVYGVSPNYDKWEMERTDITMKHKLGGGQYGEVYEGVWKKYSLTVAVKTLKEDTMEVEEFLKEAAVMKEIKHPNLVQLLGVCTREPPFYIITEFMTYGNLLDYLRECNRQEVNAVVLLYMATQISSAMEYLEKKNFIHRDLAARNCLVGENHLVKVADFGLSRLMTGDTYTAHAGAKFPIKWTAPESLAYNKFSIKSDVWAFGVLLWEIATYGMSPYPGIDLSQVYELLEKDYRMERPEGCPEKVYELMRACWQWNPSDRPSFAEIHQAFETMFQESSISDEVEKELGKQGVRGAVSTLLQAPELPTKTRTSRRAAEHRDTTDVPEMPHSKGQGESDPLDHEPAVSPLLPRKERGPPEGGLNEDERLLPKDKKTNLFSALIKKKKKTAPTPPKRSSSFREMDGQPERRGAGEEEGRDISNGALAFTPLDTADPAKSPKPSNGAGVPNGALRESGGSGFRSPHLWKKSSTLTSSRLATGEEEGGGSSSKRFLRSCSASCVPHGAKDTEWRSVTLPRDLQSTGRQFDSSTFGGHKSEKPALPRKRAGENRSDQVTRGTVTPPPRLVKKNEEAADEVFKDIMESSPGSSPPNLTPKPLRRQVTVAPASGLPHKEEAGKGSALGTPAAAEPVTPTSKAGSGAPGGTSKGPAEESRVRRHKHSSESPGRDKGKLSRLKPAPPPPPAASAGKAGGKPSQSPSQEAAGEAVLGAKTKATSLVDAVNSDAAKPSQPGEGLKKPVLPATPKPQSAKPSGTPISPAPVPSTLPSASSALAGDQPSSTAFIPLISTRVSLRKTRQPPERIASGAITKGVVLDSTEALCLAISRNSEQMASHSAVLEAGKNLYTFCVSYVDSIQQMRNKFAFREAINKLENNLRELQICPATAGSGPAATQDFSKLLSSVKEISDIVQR

As for `CNc1nc(C)c(-c2ccnc(Nc3cccc(S(N)(=O)=O)c3)n2)s1` [Compound 19, 3-[4-(4-Methyl-2-methylamino-thiazol-5-yl)-pyrimidin-2-ylamino]-benzenesulfonamide], the IC50 is 0.0398 µM at Aurora A kinase; 0.2 µM in test [1]; 0.49 µM in test [2]; 5.5 µM in test [3]; 0.039 µM in test [4]; 0.03 µM in test [5]. In addition, the IC50 was greater than 10 µM in test [6] and 0.37 µM in test [7].
For `CNc1nc(C)c(-c2ccnc(Nc3cccc(S(C)(=O)=O)c3)n2)s1` [Compound 27, (3-Methanesulfonyl-phenyl)-[4-(4-methyl-2-methylamino-thiazol-5-yl)-pyrimidin-2-yl]-amine], the IC50 was 0.316 µM on Aurora A kinase; 0.26 µM in test [1]; 0.52 µM in test [2]; greater than 10 µM in test [3]; 0.33 µM in test [4]; 0.065 µM in test [5]. Besides, the results for the IC50 in test [6] and in test [7] were greater than 10 µM and 2.1 µM, respectively.
`CNc1nc(C)c(-c2ccnc(Nc3ccc(C)c(S(=O)(=O)N4CCOCC4)c3)n2)s1` [Compound 37, [4-(4-Methyl-2-methylamino-thiazol-5-yl)-pyrimidin-2-yl]-[4-methyl-3-(morpholine-4-sulfonyl)-phenyl]-amine]: the IC50 at Aurora A kinase is 1 µM; in test [1], greater than 10 µM; in test [2], 6.6 µM; in test [3] it was 6.4 µM; in test [4], greater than 10 µM; in test [5], 0.17 µM. Besides, the IC50 in test [6] is greater than 10 µM; in test [7] it was 3.8 µM.
On to `Cc1ccc(Nc2nccc(-c3sc(N)nc3C)n2)cc1S(=O)(=O)N1CCOCC1` [Compound 38, [4-(2-Amino-4-methyl-thiazol-5-yl)-pyrimidin-2-yl]-[4-methyl-3-(morpholine-4-sulfonyl)-phenyl]-amine], for which the IC50 on Aurora A kinase is 0.501 µM; in test [1], greater than 10 µM; in test [2], 4.8 µM; in test [3], 2.5 µM; in test [4], 4.8 µM; in test [5] it was 0.2 µM. Also, the IC50 was greater than 10 µM in test [6] and 2.3 µM in test [7].
In the case of `COCCNS(=O)(=O)c1cccc(Nc2nccc(-c3sc(N)nc3C)n2)c1` [Compound 55, 3-[4-(2-Amino-4-methyl-thiazol-5-yl)-pyrimidin-2-ylamino]-N-(2-methoxy-ethyl)-benzenesulfonamide], the IC50 on Aurora A kinase was 0.158 µM; in test [1] it was 2.9 µM; in test [2] it was 1.9 µM; in test [3] it was 5.8 µM; in test [4], 2.1 µM; in test [5] it was 0.18 µM. Moreover, the IC50 is greater than 10 µM in test [6] and 2.1 µM in test [7].
Take `CCNc1nc(C)c(-c2ccnc(Nc3ccc(N4CCNCC4)cc3)n2)s1` [Compound 59, [4-(2-Ethylamino-4-methyl-thiazol-5-yl)-pyrimidin-2-yl]-(4-piperazin-1-yl-phenyl)-amine]: the IC50 was 0.0794 µM at Aurora A kinase; 1.2 µM in test [1]; 0.21 µM in test [2]; greater than 10 µM in test [3]; 0.029 µM in test [4]; 0.017 µM in test [5]. Further, the IC50 in test [6] is greater than 10 µM; in test [7], 0.47 µM.
For `Cc1nc(CS(=O)(=O)c2cccs2)sc1-c1ccnc(Nc2ccc(N3CCOCC3)cc2)n1` [Compound 138, {4-[4-Methyl-2-(thiophene-2-sulfonylmethyl)-thiazol-5-yl]-pyrimidin-2-yl}-(4-morpholin-4-yl-phenyl)-amine], the IC50 at Aurora A kinase is 0.0501 µM.
